Data on one compound can be found in patent publication US12286401B2, “Small molecules that sensitize HIV-1 infected cells to antibody dependent cellular cytotoxicity” (THE TRUSTEES OF THE UNIVERSITY OF PENNSYLVANIA, priority 2018, dated 2025).

SMILES strings stand for the structures.

Experiment [1] relates to primary CD4 T cells infected with HIV-1CH58TF. Briefly: Cell surface staining with A32-AF647 (State 2A, cluster A exposure). The note with it: 50 μM compound. The experiment is classed as cell-based. The procedure:
FIGS. 14A-14D show the data for the cell surface staining with A32-AF647. Cells were then incubated with A32-AF647 together with 5 μg/ml 17b (FIG. 14A, FIG. 14B, 14C) or 1:1000 diluted HIV+ plasma from infected individuals (FIG. 14D) in the presence of DMSO, 50 μM (+)-BNM-III-170 or 50 μM (S)-MCG-IV-210 at 37° C. Mean fluorescence intensity (MFI) of A32-AF647 was measured by flow cytometry. FIG. 14E is a bar graph showing data for the VBE assay, comparing the binding capacity of different Abs, the relative ratio of the luciferase activity to the luciferase activity of 2G12. Data shown are the mean±SD of at least three independent experiments. Statistical significance was evaluated using Mann-Whitney unpaired t test (FIG. 14C) or Wilcoxon paired t test (FIG. 14D) (*, P<0.05; ns, not significant.).
To evaluate whether (S)-MCG-IV-210 was able to stabilize State 2A, primary CD4+ T cells were infected with the primary CH58 transmitted/founder (CH58 TF) virus and evaluated the exposure of the cluster A region with an Alexa-Fluor 647-conjugated A32 (A32-AF647) antibody in the presence or absence of CD4mc and the CoRBS 17b Ab, as reported. See, Richard, 2016, EbioMedicine doi:10.1016/j.ebiom.2016.09.004. […] Mean fluorescence intensity (MFI) of A32-AF647 was measured by flow cytometry. […]

For experiment [2], the system named is uninfected bystander CD4+ T cells. The experiment is described as follows: Uninfected bystander CD4+ T cell recognition and ADCC. The class given is cell-based. The note with it: 50 μM. The procedure:
FIG. 17A is a dot plot showing the ability of HIV+plasma to recognize uninfected bystander cells in the presence of 50 μM (+)-BNM-III-170 or (S)-MCG-IV-210 was evaluated by FACS. FIG. 17B is a dot showing the use of the uninfected eFluor 450+ cells as target cells for ADCC with autologous PBMC and 5 HIV+ plasma in the presence of 50 μM (+)-BNM-III-170 or (S)-MCG-IV-210. Statistical significance was evaluated using a paired t test (*, P<0.05; ****, P<0.0001; ns, not significant).
The capacity of (S)-MCG-IV-210 to protect uninfected bystander CD4+ T cells from ADCC responses was evaluated. Briefly, primary CD4+ T cells were infected with the NL4-3.ADA.GFP WT virus. The cell proliferation dye eFluor-450 was used to stain uninfected autologous CD4+ T cells, which were then added to the infected cells (eFluor-450-cells) and co-cultured for 72 h. The ability of HIV+ plasma to recognize uninfected bystander cells in the presence of 50 μM (+)-BNM-III-170 or (S)-MCG-IV-210 was evaluated by FACS (FIG. 17A). These uninfected eFluor 450+ cells were also used as target cells for ADCC with autologous PBMC and 5 HIV+ plasma in the presence of 50 μM (+)-BNM-III-170 or (S)-MCG-IV-210 (FIG. 17B).

With `NCCNC(=O)N1CCC[C@H](C(=O)Nc2ccc(Cl)c(F)c2)C1` [(S)-MCG-IV-210], the “recognition of infected cells by A32-AF647 with addition of 17b” value in experiment [1] (5 μg/ml 17b, 37° C.) was “significantly enhanced”. Besides, in experiment [1] (1:1000 diluted HIV+ plasma), the “binding of infected cells by A32-AF647 in the presence of HIV+ plasma” value is “significantly enhanced binding”. Further, the “recognition of bystander cells by HIV+ plasma” value in experiment [2] (added at the time of co-culture) is given as “significantly decreased”. Besides, the “ADCC-mediated killing of uninfected bystander CD4+ T cells” value in experiment [2] (autologous PBMC and 5 HIV+ plasma) is recorded as “protecting uninfected bystander CD4+ T cells from ADCC-mediating killing”.
